Experimental data as given in ChEMBL document CHEMBL1201862, “PubChem BioAssay data set” (2004).
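Following 48 hours of exposure in 96-well plates, responses at five concentrations were used to interpolate endpoints linearly. The concentration for 50% growth inhibition is given as GI50.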 Calls of active or inactive are those of the source. No stated cut-off is given here; in the data, active = GI50 up to about 1.1 µM and inactive = higher.

Columns and labels:
Assay in all cases: growth of human tumour cells (NCI), 48 h
ACHN = system: ACHN
UACC-257 = system: UACC-257
HCC 2998 = system: HCC 2998
HT-29 = system: HT-29
HL-60 = system: HL-60
786-0 = system: 786-0
UO-31 = system: UO-31
SK-OV-3 = system: SK-OV-3
MDA-N = system: MDA-N
SR = system: SR
SF-295 = system: SF-295
SF-268 = system: SF-268
LOX IMVI = system: LOX IMVI
HOP-62 = system: HOP-62
DU-145 = system: DU-145
SW-620 = system: SW-620
OVCAR-5 = system: OVCAR-5
OVCAR-3 = system: OVCAR-3
NCI/ADR-RES = system: NCI/ADR-RES
K562 = system: K562
NCI-H23 = system: NCI-H23
SNB-19 = system: SNB-19
HOP-92 = system: HOP-92
OVCAR-8 = system: OVCAR-8
PC-3 = system: PC-3
CCRF-CEM = system: CCRF-CEM
COLO 205 = system: COLO 205
U-251 = system: U-251
HCT-15 = system: HCT-15
BT-549 = system: BT-549
MDA-MB-231 = system: MDA-MB-231
MDA-MB-435 = system: MDA-MB-435
RPMI-8226 = system: RPMI-8226
SF-539 = system: SF-539
NCI-H460 = system: NCI-H460
IGROV-1 = system: IGROV-1
MOLT-4 = system: MOLT-4
Malme-3M = system: Malme-3M
M14 = system: M14
TK-10 = system: TK-10
SK-MEL-2 = system: SK-MEL-2
HCT-116 = system: HCT-116
SN12C = system: SN12C
A498 = system: A498
A549 = system: A549
CAKI-1 = system: CAKI-1
UACC-62 = system: UACC-62
SK-MEL-5 = system: SK-MEL-5
EKVX = system: EKVX
NCI-H226 = system: NCI-H226
RXF 393 = system: RXF 393
Hs-578T = system: Hs-578T
OVCAR-4 = system: OVCAR-4
KM12 = system: KM12
MCF7 = system: MCF7
SNB-75 = system: SNB-75
NCI-H522 = system: NCI-H522
SK-MEL-28 = system: SK-MEL-28

Question: How did the GI50 (ACHN) turn out when `CC(C)(C)C1CCC2c3c([nH]c4ccccc34)C3C(=O)N(c4ccccc4Cl)C(=O)C3C2C1` (stereo not drawn) was run?
Answer: 14.1 µM (inactive)

Question: What about the GI50 (UACC-257) of the same compound?
Answer: 31.6 µM (inactive)

Question: And the GI50 (HCC 2998)?
Answer: 3.41 µM (inactive)

Question: What about the GI50 (HT-29) of the same compound?
Answer: 5.86 µM (inactive)

Question: What about the GI50 (HL-60) of the same compound?
Answer: 12.6 µM (inactive)

Question: And the GI50 (786-0)?
Answer: 10.3 µM (inactive)

Question: What about the GI50 (UO-31) of the same compound?
Answer: 14.5 µM (inactive)

Question: What about the GI50 (SK-OV-3) of the same compound?
Answer: 22.8 µM (inactive)

Question: And the GI50 (MDA-N)?
Answer: 12.1 µM (inactive)

Question: And the GI50 (SR)?
Answer: 13.4 µM (inactive)

Question: And the GI50 (SF-295)?
Answer: 19.7 µM (inactive)

Question: What about the GI50 (SF-268) of the same compound?
Answer: 14.4 µM (inactive)

Question: What about the GI50 (LOX IMVI) of the same compound?
Answer: 10.6 µM (inactive)

Question: And the GI50 (HOP-62)?
Answer: 14.5 µM (inactive)

Question: What about the GI50 (DU-145) of the same compound?
Answer: 15.1 µM (inactive)

Question: And the GI50 (SW-620)?
Answer: 7.94 µM (inactive)

Question: What about the GI50 (OVCAR-5) of the same compound?
Answer: > 10 µM (inactive)

Question: What about the GI50 (OVCAR-3) of the same compound?
Answer: 15.6 µM (inactive)

Question: And the GI50 (NCI/ADR-RES)?
Answer: 15.3 µM (inactive)

Question: What about the GI50 (K562) of the same compound?
Answer: 9.79 µM (inactive)

Question: What about the GI50 (NCI-H23) of the same compound?
Answer: 14.4 µM (inactive)

Question: What about the GI50 (SNB-19) of the same compound?
Answer: 35.8 µM (inactive)

Question: What about the GI50 (HOP-92) of the same compound?
Answer: 0.15 µM (active)

Question: What about the GI50 (OVCAR-8) of the same compound?
Answer: 16 µM (inactive)

Question: What about the GI50 (PC-3) of the same compound?
Answer: 5.31 µM (inactive)

Question: And the GI50 (CCRF-CEM)?
Answer: 15.3 µM (inactive)

Question: And the GI50 (COLO 205)?
Answer: > 10 µM (inactive)

Question: What about the GI50 (U-251) of the same compound?
Answer: 15.6 µM (inactive)

Question: And the GI50 (HCT-15)?
Answer: 12.1 µM

Question: What about the GI50 (BT-549) of the same compound?
Answer: 23.8 µM (inactive)

Question: What about the GI50 (MDA-MB-231) of the same compound?
Answer: 10.3 µM (inactive)

Question: What about the GI50 (MDA-MB-435) of the same compound?
Answer: 30.7 µM (inactive)

Question: What about the GI50 (RPMI-8226) of the same compound?
Answer: 31.4 µM (inactive)

Question: And the GI50 (SF-539)?
Answer: > 10 µM (inactive)

Question: And the GI50 (NCI-H460)?
Answer: 3.48 µM (inactive)

Question: What about the GI50 (IGROV-1) of the same compound?
Answer: 25.9 µM (inactive)

Question: And the GI50 (MOLT-4)?
Answer: 17.9 µM (inactive)

Question: And the GI50 (Malme-3M)?
Answer: 17.3 µM (inactive)

Question: What about the GI50 (M14) of the same compound?
Answer: 17.1 µM (inactive)

Question: And the GI50 (TK-10)?
Answer: 19.4 µM (inactive)

Question: And the GI50 (SK-MEL-2)?
Answer: 17.5 µM (inactive)

Question: What about the GI50 (HCT-116) of the same compound?
Answer: 3.18 µM (inactive)

Question: And the GI50 (SN12C)?
Answer: 10.6 µM (inactive)

Question: And the GI50 (A498)?
Answer: 17.9 µM (inactive)

Question: And the GI50 (A549)?
Answer: 9.2 µM (inactive)

Question: What about the GI50 (CAKI-1) of the same compound?
Answer: 9.12 µM (inactive)

Question: And the GI50 (UACC-62)?
Answer: 14 µM (inactive)

Question: What about the GI50 (SK-MEL-5) of the same compound?
Answer: 14.1 µM (inactive)

Question: And the GI50 (EKVX)?
Answer: 6.65 µM (inactive)

Question: What about the GI50 (NCI-H226) of the same compound?
Answer: > 10 µM (inactive)

Question: And the GI50 (RXF 393)?
Answer: 11.9 µM (inactive)

Question: What about the GI50 (Hs-578T) of the same compound?
Answer: 10.4 µM (inactive)

Question: Which GI50 (ACHN) does the source give for `O=c1cc(/N=N/c2ccc(O)cc2)[nH]c(=O)[nH]1` here?
Answer: > 100 µM (inactive)

Question: What about the GI50 (UACC-257) of the same compound?
Answer: 73.1 µM (inactive)

Question: And the GI50 (HCC 2998)?
Answer: 29.7 µM (inactive)

Question: What about the GI50 (HT-29) of the same compound?
Answer: 67.8 µM (inactive)

Question: What about the GI50 (OVCAR-4) of the same compound?
Answer: > 100 µM (inactive)

Question: What about the GI50 (HL-60) of the same compound?
Answer: > 100 µM (inactive)

Question: And the GI50 (786-0)?
Answer: 39.8 µM (inactive)

Question: What about the GI50 (UO-31) of the same compound?
Answer: > 100 µM (inactive)

Question: What about the GI50 (SK-OV-3) of the same compound?
Answer: > 100 µM (inactive)

Question: What about the GI50 (MDA-N) of the same compound?
Answer: > 100 µM (inactive)

Question: What about the GI50 (SR) of the same compound?
Answer: > 100 µM (inactive)

Question: And the GI50 (SF-295)?
Answer: > 100 µM (inactive)

Question: What about the GI50 (SF-268) of the same compound?
Answer: 40.5 µM (inactive)

Question: And the GI50 (LOX IMVI)?
Answer: 79.6 µM (inactive)

Question: And the GI50 (HOP-62)?
Answer: 62.8 µM (inactive)

Question: What about the GI50 (DU-145) of the same compound?
Answer: > 100 µM (inactive)

Question: What about the GI50 (SW-620) of the same compound?
Answer: > 100 µM (inactive)

Question: And the GI50 (OVCAR-5)?
Answer: > 100 µM (inactive)

Question: And the GI50 (OVCAR-3)?
Answer: 40.7 µM (inactive)

Question: What about the GI50 (NCI/ADR-RES) of the same compound?
Answer: > 100 µM (inactive)

Question: And the GI50 (K562)?
Answer: > 100 µM (inactive)

Question: And the GI50 (NCI-H23)?
Answer: > 100 µM (inactive)

Question: What about the GI50 (SNB-19) of the same compound?
Answer: > 100 µM (inactive)

Question: What about the GI50 (HOP-92) of the same compound?
Answer: 96.6 µM (inactive)

Question: What about the GI50 (OVCAR-8) of the same compound?
Answer: > 100 µM (inactive)

Question: What about the GI50 (PC-3) of the same compound?
Answer: > 100 µM (inactive)

Question: And the GI50 (KM12)?
Answer: 16.9 µM (inactive)

Question: What about the GI50 (COLO 205) of the same compound?
Answer: > 100 µM (inactive)

Question: What about the GI50 (U-251) of the same compound?
Answer: 60.8 µM (inactive)

Question: And the GI50 (HCT-15)?
Answer: > 100 µM

Question: What about the GI50 (MCF7) of the same compound?
Answer: > 100 µM (inactive)

Question: What about the GI50 (SNB-75) of the same compound?
Answer: 26.6 µM (inactive)

Question: What about the GI50 (BT-549) of the same compound?
Answer: > 100 µM (inactive)

Question: And the GI50 (MDA-MB-231)?
Answer: > 100 µM (inactive)

Question: What about the GI50 (MDA-MB-435) of the same compound?
Answer: > 100 µM (inactive)

Question: What about the GI50 (NCI-H522) of the same compound?
Answer: 31.7 µM (inactive)

Question: And the GI50 (RPMI-8226)?
Answer: > 100 µM (inactive)

Question: What about the GI50 (SF-539) of the same compound?
Answer: 53.5 µM (inactive)

Question: What about the GI50 (NCI-H460) of the same compound?
Answer: > 100 µM (inactive)

Question: And the GI50 (SK-MEL-28)?
Answer: > 100 µM (inactive)

Question: What about the GI50 (IGROV-1) of the same compound?
Answer: > 100 µM (inactive)

Question: What about the GI50 (MOLT-4) of the same compound?
Answer: > 100 µM (inactive)

Question: What about the GI50 (Malme-3M) of the same compound?
Answer: 28.8 µM (inactive)

Question: What about the GI50 (M14) of the same compound?
Answer: > 100 µM (inactive)

Question: What about the GI50 (TK-10) of the same compound?
Answer: 99.3 µM (inactive)

Question: And the GI50 (SK-MEL-2)?
Answer: > 100 µM (inactive)

Question: And the GI50 (HCT-116)?
Answer: > 100 µM (inactive)

Question: What about the GI50 (SN12C) of the same compound?
Answer: 66.7 µM (inactive)

Question: What about the GI50 (A498) of the same compound?
Answer: > 100 µM (inactive)

Question: And the GI50 (A549)?
Answer: > 100 µM (inactive)

Question: What about the GI50 (CAKI-1) of the same compound?
Answer: > 100 µM (inactive)

Question: And the GI50 (UACC-62)?
Answer: 60.7 µM (inactive)

Question: And the GI50 (SK-MEL-5)?
Answer: > 100 µM (inactive)

Question: And the GI50 (EKVX)?
Answer: > 100 µM (inactive)

Question: And the GI50 (NCI-H226)?
Answer: > 100 µM (inactive)

Question: And the GI50 (RXF 393)?
Answer: 42.1 µM (inactive)
